Experimental data taken from patent publication US7566712B2, “Biaryl piperazinyl-pyridine analogues” (Neurogen Corporation, priority 2003, dated 2009).

The compounds below were run against T1, human capsaicin receptor (Homo sapiens, UniProt Q8NER1) (assay: Calcium mobilization assay, determination of antagonist activity (Example 6)). Settings: Table II; IC50 determined as described in Example 6.
T1 construct: pBK-CMV expression construct encoding the full length human capsaicin receptor; expressed in transfected cells
Format: cell-based
Outline: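 HEK293 clonal lines stably expressing full-length human capsaicin receptor, loaded with Fluo-3 AM in KRH buffer pH 7.4, 1–2 h at 37 °C. Compounds (1–5 μM final) preincubated 0.5–6 h at room temperature, then capsaicin at its EC50 added. FLIPR/Fluoroskan calcium signal; IC50 as 50% decrease of capsaicin response.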

T1 sequence (Q8NER1 whole entry): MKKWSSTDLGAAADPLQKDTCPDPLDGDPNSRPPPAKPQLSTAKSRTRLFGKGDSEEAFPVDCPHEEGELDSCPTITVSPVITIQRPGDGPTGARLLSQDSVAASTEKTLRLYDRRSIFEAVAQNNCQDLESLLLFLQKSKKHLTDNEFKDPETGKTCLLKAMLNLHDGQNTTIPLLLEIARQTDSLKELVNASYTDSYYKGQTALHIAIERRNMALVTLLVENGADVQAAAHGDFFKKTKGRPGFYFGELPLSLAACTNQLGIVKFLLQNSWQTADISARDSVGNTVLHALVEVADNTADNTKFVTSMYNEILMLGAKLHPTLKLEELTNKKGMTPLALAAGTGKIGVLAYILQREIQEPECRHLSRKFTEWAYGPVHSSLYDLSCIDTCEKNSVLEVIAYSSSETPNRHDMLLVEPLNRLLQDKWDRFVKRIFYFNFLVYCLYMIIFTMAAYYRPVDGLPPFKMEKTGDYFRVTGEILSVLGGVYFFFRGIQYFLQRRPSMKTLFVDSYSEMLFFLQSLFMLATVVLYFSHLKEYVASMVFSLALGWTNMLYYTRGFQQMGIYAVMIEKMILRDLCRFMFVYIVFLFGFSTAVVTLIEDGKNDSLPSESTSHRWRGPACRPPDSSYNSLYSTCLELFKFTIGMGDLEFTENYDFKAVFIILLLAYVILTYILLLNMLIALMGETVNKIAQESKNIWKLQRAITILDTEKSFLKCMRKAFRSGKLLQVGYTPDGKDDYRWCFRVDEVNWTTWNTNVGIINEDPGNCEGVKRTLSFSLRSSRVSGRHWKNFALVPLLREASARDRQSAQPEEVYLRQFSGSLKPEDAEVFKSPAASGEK

IC50, ≤ 1000 nM:
COC(CN(C)c1nc(-c2ccc(F)c(Cl)c2)cc(N2CCN(c3ncccc3C(F)(F)F)CC2)n1)OC [Example 548, 4-(3-chloro-4-fluorophenyl)-N-(2,2-dimethoxyethyl)-N-methyl-6-{4-[3-(trifluoromethyl)pyridin-2-yl]piperazin-1-yl}pyrimidin-2-amine]
Fc1ccc(-c2cc(N3CCN(c4ncccc4C(F)(F)F)CC3)nc(OCC3CCCO3)n2)cc1Cl (stereo not drawn) [Example 556, 4-(3-chloro-4-fluorophenyl)-2-(tetrahydrofuran-2-ylmethoxy)-6-{4-[3-(trifluoromethyl)pyridin-2-yl]piperazin-1-yl}pyrimidine]
CC(C)c1ccc(-c2cc(N3CCN(c4ncccc4C#N)C[C@H]3C)nc(N3CCOCC3)n2)cc1 [Example 503, 2-{(3R)-4-[6-(4-isopropylphenyl)-2-morpholin-4-ylpyrimidin-4-yl]-3-methylpiperazin-1-yl}nicotinonitrile]
Fc1ccc(-c2cc(N3CCN(c4ncccc4C(F)(F)F)CC3)nc(OCC3CC3)n2)cc1Cl [Example 553, 4-(3-chloro-4-fluorophenyl)-2-(cyclopropylmethoxy)-6-{4-[3-(trifluoromethyl)pyridin-2-yl]piperazin-1-yl}pyrimidine]
Cc1cccnc1N1CCN(c2cc(-c3ccc(OC(F)(F)F)cc3)nc(N3CCOCC3)n2)[C@H](C)C1 [Example 527, 4{4[(2R)-2-methyl-4-(3-methylpyridin-2-yl)piperazin-1-yl]-6-[4-(trifluoromethoxy)phenyl]pyrimidin-2-yl}morpholine]
FC(F)(F)c1cccc(-c2nc(N3CCOCC3)nc(N3CCN(c4ncccc4C(F)(F)F)CC3)n2)c1 [Example 438, 2-morpholin-4-yl-4-[3-(trifluoromethyl)phenyl]-6-{4-[3-(trifluoromethyl)pyridin-2-yl]piperazin-1-yl}-1,3,5-triazine]
Fc1ccc(-c2nc(N3CCOCC3)nc(N3CCN(c4ncccc4C(F)(F)F)CC3)n2)cc1F [Example 428, 2-(3,4-difluorophenyl)-4-morpholin-4-yl-6-{4-[3-(trifluoromethyl)pyridin-2-yl]piperazin-1-yl}-1,3,5-triazine]

Same assay, conditions: Table II; IC50 determined as described in Example 6 (antagonist activity, calcium mobilization)

IC50, ≤ 1000 nM:
C[C@@H]1CN(c2ncccc2F)CCN1c1cc(-c2ccc(F)c(F)c2)nc(N2CCOC[C@@H]2C)n1 [Example 1006, (3S)-4-{4-(3,4-difluorophenyl)-6-[(2R)-4-(3-fluoropyridin-2-yl)-2-methylpiperazin-1-yl]pyrimidin-2-yl}-3-methylmorpholine]
C[C@@H]1CN(c2nccnc2Cl)CCN1c1cc(-c2ccc(F)c(Cl)c2)nc(N2CCOC[C@@H]2C)n1 [Example 1003, (3S)-4-{4-(3-chloro-4-fluorophenyl)-6-[(2R)-4-(3-chloropyrazin-2-yl)-2-methylpiperazin-1-yl]pyrimidin-2-yl}-3-methylmorpholine]

Same assay, conditions: Table II; determined as described in Example 6 (antagonist activity); "*" = 1 micromolar or less

IC50, ≤ 1000 nM:
C[C@@H]1CCCN1c1cc(-c2ccc(F)c(F)c2)nc(N2CCN(c3nccnc3Cl)C[C@@H]2C)n1 [Example 950, 2-[(2S)-4-(3-chloropyrazin-2-yl)-2-methylpiperazin-1-yl]-4-(3,4-difluorophenyl)-6-[(2R)-2-methylpyrrolidin-1-yl]pyrimidine]
Cc1ccc(-c2cc(N3CCN(c4ncccc4Cl)C[C@H]3C)nc(N3CCCC3)n2)cc1C [Example 805, 4-[(2R)-4-(3-chloropyridin-2-yl)-2-methylpiperazin-1-yl]-6-(3,4-dimethylphenyl)-2-pyrrolidin-1-ylpyrimidine]
CC1CCCN1c1nc(-c2cncc(Cl)c2)cc(N2CCN(c3ncccc3Cl)C[C@H]2C)n1 (stereo partly drawn) [Example 807]
C[C@@H]1CN(c2ncccc2C(F)(F)F)CCN1c1cc(-c2ccc(F)c(F)c2)nc(N2CCCC2)n1 [Example 791, 4-(3,4-difluorophenyl)-6-{(2R)-2-methyl-4-[3-(trifluoromethyl)pyridin-2-yl]piperazin-1-yl}-2-pyrrolidin-1-ylpyrimidine]
CC(C)c1cc(-c2cc(N3CCN(c4ncccc4C(F)(F)F)CC3)nc(N3CCCC3C)n2)ccn1 (stereo not drawn) [Example 796, 4-(2-isopropylpyridin-4-yl)-2-(2-methylpyrrolidin-1-yl)-6-{4-[3-(trifluoromethyl)pyridin-2-yl]piperazin-1-yl}pyrimidine]

Same assay, conditions: determined as described in Example 6 (calcium mobilization, antagonist activity); Table II

IC50, ≤ 1000 nM:
CC(C)N1CCN(c2nc(-c3ccc(F)c(Cl)c3)cc(N3CCN(c4ncccc4C(F)(F)F)CC3)n2)CC1 [Example 598, 4-(3-chloro-4-fluorophenyl)-2-(4-isopropylpiperazin-1-yl)-6-{4-[3-(trifluoromethyl)pyridin-2-yl]piperazin-1-yl}pyrimidine]
CCN(CC)c1nc(-c2ccc(F)c(C)c2)cc(N2CCN(c3ncccc3Cl)CC2)n1 [Example 721, 4-[4-(3-chloropyridin-2-yl)piperazin-1-yl]-N,N-diethyl-6-(4-fluoro-3-methylphenyl)pyrimidin-2-amine]
Cc1cc(-c2cc(N3CCN(c4ncccc4C(F)(F)F)CC3)nc(N(CCO)CCO)n2)ccc1F [Example 678]
CCN(CC)c1nc(-c2cncc(Cl)c2)cc(N2CCN(c3ncccc3C(F)(F)F)CC2)n1 [Example 595, 4-(5-chloropyridin-3-yl)-N,N-diethyl-6-{4-[3-(trifluoromethyl)pyridin-2-yl]piperazin-1-yl}pyrimidin-2-amine]
Cc1cc(-c2cc(N3CCN(c4ncccc4C(F)(F)F)CC3)nc(N(C)C3CC3)n2)ccc1F [Example 736, N-cyclopropyl-4-(4-fluoro-3-methylphenyl)-N-methyl-6-{4-[3-(trifluoromethyl)pyridin-2-yl]piperazin-1-yl}pyrimidin-2-amine]
Nc1cccc(-c2cc(N3CCN(c4ncccc4C(F)(F)F)CC3)nc(N3CCOCC3)n2)c1 [Example 589, 3-(2-morpholin-4-yl-6-{4-[3-(trifluoromethyl)pyridin-2-yl]piperazin-1-yl}pyrimidin-4-yl)phenylamine]
Cc1cc(-c2cc(N3CCN(c4ncccc4C(F)(F)F)CC3)nc(N3CCOCC3)n2)cc(C)n1 [Example 590, 4-(4-(2,6-dimethylpyridin-4-yl)-6-{4-[3-(trifluoromethyl)pyridin-2-yl]piperazin-1-yl}pyrimidin-2-yl)morpholine]
Fc1ccc(-c2cc(N3CCN(c4ncccc4C(F)(F)F)CC3)nc(N3CCCC3)n2)cc1Cl [Example 603, 4-(3-chloro-4-fluorophenyl)-2-pyrrolidin-1-yl-6-{4-[3-(trifluoromethyl)pyridin-2-yl]piperazin-1-yl}pyrimidine]
[O-][n+]1ccc(-c2nc(-c3ccc(F)c(Cl)c3)cc(N3CCN(c4ncccc4C(F)(F)F)CC3)n2)cc1 [Example 670]
Fc1ccc(-c2cc(N3CCN(c4ncccc4Cl)CC3)nc(SCc3ccccc3)n2)cc1Cl [Example 700, 2-(benzylthio)-4-(3-chloro-4-fluorophenyl)-6-[4-(3-chloropyridin-2-yl)piperazin-1-yl]pyrimidine]
